Reference: patent publication EP4467141A1, “PYRAZOLO-QUINOLINES AS SELECTIVE INHIBITORS OF GENOTOXIC STRESS-INDUCED IKK/NF- KB PATHWAYS FOR CANCER THERAPY” (Max-Delbrück-Centrum für Molekulare Medizin in der …, priority 2023, dated 2024)

Columns and labels:
[1] = tested on: NF-κB subunit p65 phosphorylation (S536); test: Western blot of p65 phosphorylation (S536) after TNFα in U2-OS cells; format: cell-based; conditions: 1-hour pre-treatment, TNFα 10 ng/ml, 20 min
Protocol: Fig.1: Identification of inhibitors specific for DNA damage-induced NF-κB activity. (A) Flowchart representing the high-throughput chemical library screening. A screen/counter-screen strategy was used by stimulating NF-κB in U2-OS cells with etoposide (50 µM for 90 min) and hits were counter-screened with TNFα (10 ng/ml for 20 min). Cells were pre-treated with compounds (10 µM) for 1 hour before stimulation, fixed, and percent p65 nuclear translocation measured by fluorescence microscopy. IC50 values were used for final selection. (B) Comparison of mean p65 nuclear translocation following either etoposide or TNFa stimulation after treatment with each counter-screened hit compound. Values were normalized to etoposide or TNFα positive controls. Specific inhibitors (red) of DNA damage-induced NF-κB signaling were defined by setting cut-off criteria (black line). […] (C) IC50 determination for MW01 (left) and MW05 (right) of p65 nuclear translocation, following either etoposide or TNFα treatment. […] IC50 noted with a dotted line. […] (E) Western blot analysis (top) and quantification (bottom) of NF-κB subunit p65 phosphorylation (S536) following 1-hour pre-treatment with DMSO, MW01 (10 µM), or MW05 (10 µM), in unstimulated, after 90 min irradiation (IR, 20 Gy), or after 20 min TNFα (10 ng/mL) conditions in U2- OS cells. […]
NF-κB was stimulated by DNA damage through either 20 Gy irradiation (IR) and analyzed after 90 minutes or by 10 ng/ml TNFα and analyzed after 20 minutes unless otherwise noted. […]
Cells were collected by scraping and lysed in Baeuerle lysis buffer supplemented with Protease (Thermo Fisher Scientific, 78429) and Phosphatase (Thermo Fisher Scientific, 78420) inhibitors after the appropriate treatment and time point. Proteins were quantified by Bradford assay (Bio-Rad, 5000006) and 20-50 µg of extracted proteins were loaded on 4-20% Protein Gel (Bio-Rad, 4568096) and then transferred onto a PVDF membrane (Bio-Rad, 1620177) using Tris-Glycine buffer with 20% of methanol. […]

U2-OS cells = test: Cell viability assay; format: cell-based; conditions: for cell viability, etoposide co-treatment: 10 µM plus etoposide 50 µM, compared to etoposide alone; for cell viability, compound alone: 10 µM, 6, 24, and 48 hours, compared to DMSO
Protocol: Fig.4: MW01 and MW05 reduce cell viability and increase p53-mediated apoptosis upon etoposide co-treatment. (A) Representative light microscopy images of U2-OS cells following treatment with DMSO, MW01 (10 µM), MW05 (10 µM), or etoposide (50 µM), or co-treatment with MW01 (10 µM) and etoposide (50 µM), or MW05 (10 µM) and etoposide (50 µM) at 24 (left) and 48 hours (right). (B) Quantification of cell viability using CellTiter-Fluor Cell Viability Assay at 6, 24, and 48 hours. Treatment with 0.1% SDS 30 minutes prior to assay was used as positive cell death control. (ns: not significant; *, **, ***: p<0.05, p<0.01, p<0.001). (C) U2-OS cells were treated with DMSO, MW01 (10 µM), MW 05 (10 µM), or etoposide (50 µM), or co-treated with MW01 (10 µM) and etoposide (50 µM), or MW05 (10 µM) and etoposide (50 µM), as indicated. After 24 hours, whole cell lysates were prepared and analyzed by Western blotting for p65 phosphorylation (S536), caspase-3 and cleaved caspase-3 (left panel) and for p53 and γH2AX) (right panel). Vinculin was used as loading control.
1×10^4 cells per well were seeded in a 96-well plate and incubated overnight. The day after, cells were treated with 10 µM of compounds under investigation, 50 µM Etoposide or 10 µM Cisplatin, alone or in combination, for appropriate time points. DMSO and 10% of Triton-X100 were used as negative and positive control respectively. Luminescent staining was performed using CellTiter-Glo Luminescent Cell Viability Assay (Promega, G7570), adding in each well a volume of CellTiter-Glo reagent equal to the volume of cell culture medium present into the well. After 1h of incubation at 37°C, luminescence was read by BioTek Cytation 1 Cell Imaging Multimode Reader (Agilent).
We hypothesized that due to the important function of the DNA double strand-induced IKK-NF-κB pathway as in anti-apoptotic signalling (Stilmann et al., 2009), both MW01 and MW05 should sensitize cells to DNA damaging agents, and therefore support their potential use to potentiate genotoxic therapies. To characterize the effect of MW01 and MW05 on cell viability, we treated cells with both compounds alone or in combination with etoposide to induce DNA lesions (Fig. 4A). […] The same effect in cell viability reduction was confirmed for MW01 and MW05 in co-treatment with cisplatin, another widely used chemotherapeutic drug. To investigate the underlying molecular causes of this phenotype, we looked at markers of NF-κB and p53 activation, DNA damage, and apoptosis after single and co-treatment with MW01, MW05, and etoposide (Fig 4C). MW01 and MW05 abrogated etoposide-stimulated p65 phosphorylation, thereby validating our inhibition of IKK and NF-κB activity. […]

SMILES	phosphorylation of p65 at serine 536, TNFα-stimulated [1]	cell viability, etoposide co-treatment (U2-OS cells)	cell viability, compound alone (U2-OS cells)
COc1ccc2c(c1OC)c(=O)n1c3ccc(O)cc3c3ccnc2c31 [MW01, 5-Hydroxy-10,11-dimethoxy-9H-benzo[c]indolo[3,2,1-ij][1,5]naphthyridin-9-one]	untouched	significantly reduced cell viability after 6 hours	slightly reduced cell viability
COc1ccc2cc3c(N)nn(C(=O)c4cccc(N(C)C)c4)c3nc2c1 [MW05, (3-Amino-7-methoxypyrazolo[3,4-b]quinolin-1-yl)-[3-(dimethylamino)phenyl]methanone]	untouched	significant reduction after 24 hours	slightly reduced cell viability
